Reference: PubChem BioAssay AID652149 (Molecular Libraries Program, Specialized Chemistry Center, …, 2013)
Calls of active or inactive are those of the source. The rule behind the calls is not given here.

Each compound was assayed against Breakpoint cluster region protein (Homo sapiens) (UniProt P11274) (assay: breakpoint cluster region GTPase-activating protein domain inhibitors, dose-response, specificity counterscreen for MgcRacGAP inhibitor project, cell-free, Rac1 GTPase, Biomol Green phosphate readout (AID 652149)). Details: BCR GAP/Rac1 GTPase, Biomol green phosphate absorbance.
Chain of Breakpoint cluster region protein (Homo sapiens) (P11274 whole entry, looked up, the tested form may be a part): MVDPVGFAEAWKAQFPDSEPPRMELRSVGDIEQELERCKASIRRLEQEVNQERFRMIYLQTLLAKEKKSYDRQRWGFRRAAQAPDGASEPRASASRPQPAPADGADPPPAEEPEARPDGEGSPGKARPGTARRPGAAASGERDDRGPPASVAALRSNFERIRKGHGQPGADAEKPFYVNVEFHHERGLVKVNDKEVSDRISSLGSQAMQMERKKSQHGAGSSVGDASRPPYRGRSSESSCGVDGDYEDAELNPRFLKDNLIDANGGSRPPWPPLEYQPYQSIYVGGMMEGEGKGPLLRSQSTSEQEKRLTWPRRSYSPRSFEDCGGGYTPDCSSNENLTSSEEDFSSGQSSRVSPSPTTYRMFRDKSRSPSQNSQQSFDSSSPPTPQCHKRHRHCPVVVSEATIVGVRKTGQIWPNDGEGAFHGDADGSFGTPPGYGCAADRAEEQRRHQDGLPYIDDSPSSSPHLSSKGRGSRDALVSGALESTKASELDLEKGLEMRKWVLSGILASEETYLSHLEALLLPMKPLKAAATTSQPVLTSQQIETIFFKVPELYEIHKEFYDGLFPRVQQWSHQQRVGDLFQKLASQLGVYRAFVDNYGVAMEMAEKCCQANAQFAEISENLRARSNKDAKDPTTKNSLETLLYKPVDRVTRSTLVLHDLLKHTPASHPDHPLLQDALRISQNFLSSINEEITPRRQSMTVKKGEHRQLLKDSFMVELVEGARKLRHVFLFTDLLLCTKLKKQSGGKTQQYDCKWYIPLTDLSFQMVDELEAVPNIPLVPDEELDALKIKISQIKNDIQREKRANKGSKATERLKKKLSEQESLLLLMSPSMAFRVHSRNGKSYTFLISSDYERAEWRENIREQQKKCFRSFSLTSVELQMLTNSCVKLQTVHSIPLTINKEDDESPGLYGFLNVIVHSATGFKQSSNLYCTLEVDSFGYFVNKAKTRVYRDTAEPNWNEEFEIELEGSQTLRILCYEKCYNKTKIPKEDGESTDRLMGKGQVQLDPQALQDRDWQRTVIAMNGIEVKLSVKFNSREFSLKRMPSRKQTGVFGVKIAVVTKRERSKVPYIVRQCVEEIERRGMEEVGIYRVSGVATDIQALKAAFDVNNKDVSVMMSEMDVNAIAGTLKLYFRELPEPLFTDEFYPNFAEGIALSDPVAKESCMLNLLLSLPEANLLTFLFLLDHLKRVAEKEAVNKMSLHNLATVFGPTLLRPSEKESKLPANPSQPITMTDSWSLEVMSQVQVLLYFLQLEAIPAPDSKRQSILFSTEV

Row | SMILES | IC50 [µM]
1 | Cc1cc(N)c2cc(NC(=O)/C=C/c3ccccc3Cl)ccc2n1 | 29.1
2 | O=C(Nc1ccccc1Cl)/C(Cl)=C(\Cl)S(=O)c1ccccc1 (stereo unspecified) | 12.6
3 | O=C1C=CC(=O)N1c1ccccc1N1C(=O)C=CC1=O | 22.1
4 | O=C(O)C1CSC(c2ccco2)N1 (stereo unspecified) | 10.7
5 | O=c1c2ccc(F)cc2sn1-c1ccccc1 | 9.12
6 | Nc1ccc(OCc2ccco2)cc1 | 20.6
7 | Nc1n[nH]c(=S)n1/N=C1/C(=O)Nc2ccccc21 | 14.6
8 | CCN(CC)c1ccc(C(=C2C=CC(=[N+](CC)CC)C=C2)c2ccc(N(CC)CC)cc2)cc1 | 35.1
9 | O=C1C=CC(=O)c2c(O)c(N3CCN(CCO)CC3)c(Cl)c(O)c21 | 10.2
10 | CSc1nc(N)c(N=Nc2ccc([As](=O)(O)O)cc2)c(=O)[nH]1 | 5.86
11 | O=c1c2ccccc2sn1-c1ccccc1F | 32.8
12 | CCN1CCN(Cc2ccc(NC(=O)c3ccc(C)c(/C=C/c4cnc(Nc5cc(N6CCNCC6)nc(C)n5)cn4)c3)cc2C(F)(F)F)CC1 | 72.7
13 | O=C1C(SCCO)=C(SCCO)C(=O)c2ccccc21 | 25.2
14 | CC1=NNC(=O)C1Br (stereo unspecified) | 13.6
15 | O=C1C(Cl)=C(NC(=O)c2ccccc2)C(=O)C(Cl)=C1NC(=O)c1ccccc1 | 22.7
16 | O=C1C(=Cc2ccco2)CCC1=Cc1ccco1 | 12.7
17 | O=c1c2cc(F)ccc2sn1-c1ccccc1Cl | 8.92
18 | Cc1ccc(-n2sc3cc(F)ccc3c2=O)c(C)c1 | 6.71
19 | C[n+]1c(-c2ccc(C=NNC(=O)c3ccc(C(=O)NN=Cc4ccc(-c5cn6ccccc6[n+]5C)cc4)cc3)cc2)cn2ccccc21 | 14.4
20 | COc1ccc(/C=N/Nc2cc(C)nc3ccc(OC)cc23)c(OC)c1 | 18.4
21 | O=C1C=CC(=O)c2c(O)c(N3CCN(CCOCCO)CC3)c(Br)c(O)c21 | 31.4
22 | COc1ccc(Nc2ccc3ccccc3c2)cc1 | 5.93

Row | SMILES | IC50 [µM]
23 | O=c1c2ccccc2sn1-c1ccc(Cl)cc1 | 4.44
24 | CN(C)c1nc(=NCc2cccs2)ss1 | 18.5
25 | CC(=O)Nc1ccc2sn(-c3ccccc3)c(=O)c2c1 | 27.4
26 | COc1ccc(-n2sc3ccc(F)cc3c2=O)cc1 | 9.82
27 | CC1OC(CC(=O)O)CC2=C1C(=O)c1c(O)cccc1C2=O (stereo unspecified) | 13.2
28 | O=C(O)c1cc(N2C(=O)C=CC2=O)cc(N2C(=O)C=CC2=O)c1 | 24.4
29 | O=C1NC(=S)N(c2ccccc2)C(=O)/C1=C/c1ccco1 | 10.2
30 | COC(=O)c1cccc(-n2sc3ccccc3c2=O)c1 | 14.8
31 | Cn1ccc(=Nc2ccc(NC(=O)c3ccc(N=c4ccn(C)c5ccc([N+](=O)[O-])cc45)cc3)cc2)cc1 | 14.2
32 | O=c1c2sc3ccccc3c2[nH]c(=S)n1CCN1CCOCC1 | 5.15
33 | O=c1c2ccccc2sn1-c1ccc(F)cc1 | 4.46
34 | COc1ccc(NC2CCCN(C(=O)C3(C)CCCCC3)C2)cc1 (stereo unspecified) | 7.34
35 | CN(C)c1ccc(/C=C/c2cc[n+](C)c3ccccc23)cc1 | 23.3
36 | Cc1ccc(C)c(-n2sc3ccc(F)cc3c2=O)c1 | 7.31
37 | CN(C)c1ccc(C=c2c3cc(O)ccc3n3c2cc(-c2ccccc2)[n+]3C)cc1 | 10.8
38 | COc1ccc(-n2sc3ccccc3c2=O)cc1 | 13.3
39 | Cc1cc(C)c2c(=N)c3ccccc3n(CCCCCCCCn3c4ccccc4c(=N)c4c(C)cc(C)nc43)c2n1 | 18
40 | O=c1c2cc(F)ccc2sn1-c1ccccc1 | 7.49
41 | O=c1c2ccccc2sn1-c1cccc(Cl)c1 | 38.1
42 | Cc1c(Cl)sn(-c2ccc(Cl)cc2)c1=O | 12.9
43 | O=c1c2ccccc2sn1-c1ccc(Cl)cc1Cl | 4.22
44 | O=C(O)c1cccc(-n2sc3ccccc3c2=O)c1 | 9.61

Same assay, conditions: BCR GAP/Rac1 GTPase, Biomol green phosphate absorbance; at 100 µM (top of the series)

Row | SMILES | inhibition
45 | CN(C)c1ncc(C2=C(Cl)C(=O)C(N3CCCC3)=C(Cl)C2=O)s1 | inactive
46 | O=C(O)c1cc(N2N=C(C(F)(F)F)/C(=C/C=C/c3ccco3)C2=O)ccc1Cl | inactive
